{"source": "patent US20250188059A1", "about": "“NOVEL COMPOUND AND USE THEREOF FOR INHIBITING CHECKPOINT KINASE 2” (ARUM THERAPEUTICS INC, priority 2022, published 2025)", "key": {"[1]": {"test_system": "human breast cancer cell line MCF-7", "assay": "Cancer cell growth inhibition test (CellTiter-Glo)", "format": "cell-based", "conditions": "Homo sapiens, MCF7, 72 h, MCF-7, 72 hours, graded; read-out: Celltiter glo analysis (IC50)", "outline": "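MCF-7 cells (about 3000/well) pre-incubated 24 hours at 37° C, then exposed 72 hours to serially diluted compound, alone or combined with cisplatin or doxorubicin. Viability read by CellTiter-Glo luminescence as % of DMSO-only wells; values are means of three wells.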"}, "[2]": {"assay": "Pharmacokinetics test using mice", "format": "in vivo", "conditions": "male, Balb/C, mouse, plasma; for Cmax: read-out: C0/Cmax; for Vd: iv, 1 mg/kg", "description": "6 to 8 week-old male Balb/C mice weighing 22-29 g were acclimatized for about 1 week, and then 12 mice for each group were divided into an intravenous administration group and an oral administration group and used in the experiment. The mice were fasted before administration of the compound and were allowed to drink water ad libitum. Feed was provided 2 hours after administration of the compound.\nA preparation for intravenous injection (0.2 mg/mL) was prepared by dissolving 1.264 mg of the compound of Example 9 in 6.257 mL of DMSO: a mixed solution of solutol and ethanol (1:1): physiological saline (5:5:90% v/v). A preparation for oral administration (1 mg/mL) was prepared by suspending 5.916 mg of the compound of Example 9 in 5.857 mL of 0.5% methyl cellulose (0.5:99.5% v/v) containing 0.1 Tween 80.\nThe compound of Example 9 was administered at a dose of 1 mg/kg for intravenous administration and at a dose of 10 mg/kg for oral administration using an oral zonde.\nIn the case of intravenous administration, blood was collected at 5 minutes, 15 minutes, 30 minutes, 1 hour, 2 hours, 4 hours, 8 hours and 24 hours after administration of the compound. In the case of oral administration, blood was collected at 15 minutes, 30 minutes, 1 hour, 2 hours, 4 hours, 8 hours, 10 hours and 24 hours after administration of the compound. Plasma was separated from the collected blood, and the content of compounds in blood was measured by LC-MS/MS method, and PK parameters were calculated using Phoenix software ver.8.1."}, "Chk2 kinase": {"molecular_target": "Chk2 kinase (Homo sapiens (Human), UniProt O96017)", "sequence (O96017 whole entry)": "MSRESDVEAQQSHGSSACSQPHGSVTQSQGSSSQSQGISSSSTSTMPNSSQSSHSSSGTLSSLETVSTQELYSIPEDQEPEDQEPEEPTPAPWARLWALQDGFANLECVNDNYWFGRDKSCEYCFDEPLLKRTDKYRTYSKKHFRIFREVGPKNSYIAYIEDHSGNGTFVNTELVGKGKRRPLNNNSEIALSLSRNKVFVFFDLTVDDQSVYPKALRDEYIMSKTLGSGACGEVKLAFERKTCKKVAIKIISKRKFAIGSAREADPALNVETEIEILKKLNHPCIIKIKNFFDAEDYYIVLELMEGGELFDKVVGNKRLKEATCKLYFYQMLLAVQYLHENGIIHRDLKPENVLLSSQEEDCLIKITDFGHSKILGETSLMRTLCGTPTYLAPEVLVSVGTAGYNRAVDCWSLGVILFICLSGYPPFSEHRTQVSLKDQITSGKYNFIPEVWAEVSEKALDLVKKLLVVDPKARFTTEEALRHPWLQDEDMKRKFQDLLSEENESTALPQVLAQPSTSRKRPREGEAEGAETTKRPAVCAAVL", "assay": "Chk2 kinase inhibitory activity (LanthaScreen TR-FRET)", "format": "biochemical", "conditions": "graded", "outline": "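Recombinant Chk1 or Chk2 was mixed with substrate and compound, and the reaction was started with ATP and run 1 h at room temperature. Phosphorylation was detected with a Tb-labelled anti-CREB pSer133 antibody for 30 min, read as the TR-FRET Em520/Em490 ratio. IC50 was fitted from duplicate-well means.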"}}, "note": "Read-outs that look alike come from different tables or passages of the source.", "data": [{"smiles": "Nc1ncc(-c2cc(-c3cnn(CC(F)(F)F)c3)ccc2F)nc1C(=O)N[C@@H]1CNC[C@@H](F)C1", "note": "[Example 9, 3-amino-6-(2-fluoro-5-(1-(2,2,2-trifluoroethyl)-1H-pyrazol-4-yl)phenyl)-N-((3S,5S)-5-fluoropiperidin-3-yl) pyrazine-2-carboxamide]", "values": [{"measurement": "IC50", "setting": "[1]", "result": "10 to 100", "unit": "µM"}, {"measurement": "AUC(0-inf)", "setting": "[2]; IV (1 mg/kg)", "result": 298, "unit": "ng·h/mL"}, {"measurement": "AUC(0-t)", "setting": "[2]; IV (1 mg/kg)", "result": 267, "unit": "ng·h/mL"}, {"measurement": "clearance", "setting": "[2]; IV (1 mg/kg)", "result": 56.2, "unit": "mL/min/kg"}, {"measurement": "half-life", "setting": "[2]; IV (1 mg/kg)", "result": 1.36, "unit": "h"}, {"measurement": "Cmax", "setting": "[2]; IV (1 mg/kg)", "result": 231, "unit": "ng/mL"}, {"measurement": "bioavailability", "setting": "[2]; PO 10 mg/kg vs IV 1 mg/kg, read-out: Oral bioavailability (% F)", "result": 59, "unit": "%"}, {"measurement": "AUC(0-inf)", "setting": "[2]; PO (10 mg/kg)", "result": 1770, "unit": "ng·h/mL"}, {"measurement": "AUC(0-t)", "setting": "[2]; PO (10 mg/kg)", "result": 1730, "unit": "ng·h/mL"}, {"measurement": "Tmax", "setting": "[2]; PO (10 mg/kg)", "result": 0.5, "unit": "h"}, {"measurement": "half-life", "setting": "[2]; PO (10 mg/kg)", "result": 1.92, "unit": "h"}, {"measurement": "Cmax", "setting": "[2]; PO (10 mg/kg)", "result": 749, "unit": "ng/mL"}, {"measurement": "Vd", "setting": "[2]; IV (1 mg/kg), read-out: Vd", "result": 6.59, "unit": "L/kg"}, {"measurement": "Vd", "setting": "[2]; IV (1 mg/kg), read-out: Vss", "result": 5.22, "unit": "L/kg"}, {"measurement": "IC50", "setting": "Chk2 kinase", "result": "0.01 to 0.1", "unit": "µM"}]}]}
